Reference: paper PMC11457037 (Journal of medicinal chemistry, 2023)
pEC50, pIC50: −log10 of the molar value. Like-named read-outs stand apart in the source and are kept apart here. One block for each compound: values may come before it.

Columns and labels:
[1] = tested on: EV-D68 US/MO/14-18947; assay: CPE assay with EV-D68 US/MO/14-18947 in R.D. cells; type: cell-based, Enterovirus D68; conditions: for pEC50: read-out: Antiviral EC50
[2] = target: T1, EV-D68 2A^pro (Enterovirus D68, UniProt A0A097BW19); assay: FRET-based enzymatic assay; type: biochemical
[3] = tested on: EV-D68 US/MO/14-18947; assay: Plaque assay, EV-D68 US/MO/14-18947; type: cell-based, Enterovirus D68
[4] = target: T1, EV-D68 2A^pro; assay: Enzyme kinetic studies; type: biochemical; conditions: for Mode of inhibition of EV-D68 2A^pro: from fitting of kinetic curves
[5] = tested on: five strains of EV-D68; assay: Broad-spectrum antiviral activity, five strains of EV-D68 together; type: cell-based, Enterovirus D68
[6] = In vivo snap P.K. in mice; conditions: male C57BL/6J mice, 50 mg/kg i.p., 10% DMSO and 90% corn oil
[7] = In vivo toxicity, escalating i.p. doses
[8] = tested on: multiple strains of EV-D68; conditions: read-out: EC50 values, multiple strains of EV-D68; viral cytopathic effect assay and plaque assay; cited from earlier work
[9] = tested on: EV-D68; conditions: respiratory and neurological disease mouse models; cited from earlier work
[10] = tested on: R.D. cells; assay: Cytotoxicity, neutral red uptake method in R.D. cells; type: cell-based, Human; conditions: read-out: Cytotoxicity CC50

pEC50 ([1]; Enterovirus D, EVD68, RD): 6.12 to 6.80
Compound: CCC[C@H](NC(=O)[C@@H]1[C@H]2CCC[C@H]2CN1C(=O)[C@@H](NC(=O)CC1CCC(F)(F)CC1)C(C)(C)C)C(=O)C(=O)NC1CC1 [Jun975, (1S,3aR,6aS)-N-((S)-1-(cyclopropylamino)-1,2-dioxohexan-3-yl)-2-((S)-2-(2-(4,4-difluorocyclohexyl)acetamido)-3,3-dimethylbutanoyl)octahydrocyclopenta[c]pyrrole-1-carboxamide]

pEC50 ([1]; Enterovirus D, EVD68, RD): 6.12 to 6.80
Compound: CCC[C@H](NC(=O)[C@@H]1[C@H]2CCC[C@H]2CN1C(=O)[C@@H](NC(=O)CC1CCCCC1)C(C)(C)C)C(=O)C(=O)NC1CC1 [Jun8814, (1S,3aR,6aS)-2-((S)-2-(2-cyclohexylacetamido)-3,3-dimethylbutanoyl)-N-((S)-1-(cyclopropylamino)-1,2-dioxohexan-3-yl)octahydrocyclopenta[c]pyrrole-1-carboxamide]

Compound: COC[C@H](NC(=O)[C@@H]1[C@H]2CCC[C@H]2CN1C(=O)[C@@H](NC(=O)CC12CC3CC(CC(C3)C1)C2)C(C)(C)C)C(=O)C(=O)NC1CC1 [Jun11672, (1S,3aR,6aS)-2-((S)-2-(2-((3S,5S,7S)-adamantan-1-yl)acetamido)-3,3-dimethylbutanoyl)-N-((S)-4-(cyclopropylamino)-1-methoxy-3,4-dioxobutan-2-yl)octahydrocyclopenta[c]pyrrole-1-carboxamide]
antiviral activity, comparison in words ([1]; CPE assay EV-D68 US/MO/14-18947): not active as Jun8861

fold improvement compared to telaprevir, plaque assay EC50 [3]: 3 to 4 fold
Compound: CCC(C)[C@H](NC(=O)[C@@H]1[C@H]2CCC[C@H]2CN1C(=O)[C@@H](NC(=O)CC12CC3CC(CC(C3)C1)C2)C(C)(C)C)C(=O)C(=O)NC1CC1 (stereo partly drawn) [Jun11756, (1S,3aR,6aS)-2-((S)-2-(2-((3S,5S,7S)-adamantan-1-yl)acetamido)-3,3-dimethylbutanoyl)-N-((3S,4S)-1-(cyclopropylamino)-4-methyl-1,2-dioxohexan-3-yl)octahydrocyclopenta[c]pyrrole-1-carboxamide]
enzymatic inhibition, comparison in words [2]: comparable enzymatic inhibition and antiviral activity as Jun8861

Compound: CC(C)(C)[C@H](NC(=O)CC12CC3CC(CC(C3)C1)C2)C(=O)N1C[C@@H]2CCC[C@@H]2[C@H]1C(=O)N[C@H](C(=O)C(=O)NC1CC1)C1CCCCC1 [Jun11762, (1S,3aR,6aS)-2-((S)-2-(2-((3S,5S,7S)-adamantan-1-yl)acetamido)-3,3-dimethylbutanoyl)-N-((S)-1-cyclohexyl-3-(cyclopropylamino)-2,3-dioxopropyl)octahydrocyclopenta[c]pyrrole-1-carboxamide]
enzymatic inhibition, comparison in words [2]: comparable enzymatic inhibition and antiviral activity as Jun8861 | Mode of inhibition of EV-D68 2A^pro [4]: reversible binding | fold improvement compared to telaprevir, plaque assay EC50 [3]: 3 to 4 fold | pEC50 ([5]; Enterovirus D, EVD68, read-out: EC50 values over all five strains): 6.57 to 7.37 | fold improvement compared to telaprevir, five strains ([5]; five EV-D68 strains): 3.1-4.6 fold | time plasma concentration was above 4-fold of EC50 value (0.13 μM) [6]: at least 5 h | mortality and body weight ([7]; BALB/c mice, i.p. 100 to 400 mg/kg, monitored up to day 16): no mortality or significant body weight loss was observed | tolerated dose ([7]; female, BALB/c, mouse, in vivo, 16 days): up to 400 mg/kg

Compound: CCC[C@H](NC(=O)[C@@H]1[C@H]2CCC[C@H]2CN1C(=O)[C@@H](NC(=O)[C@@H](NC(=O)c1cnccn1)C1CCCCC1)C(C)(C)C)C(=O)C(=O)NC1CC1 [Telaprevir, telaprevir, reference compound]
kinact [4]: 0.00146 s⁻¹ | Mode of inhibition of EV-D68 2A^pro [4]: irreversible covalent inhibitor | pEC50 [8]: 5.72 to 6.40

Compound: CC(C)S(=O)(=O)n1c(N)nc2ccc(/C(=N/O)c3ccccc3)cc21 [enviroxime]
therapeutic efficacy in EV-D68 mouse models [9]: none of these antivirals showed therapeutic efficacy

Compound: CCOC(=O)c1ccc(OCCC2CCN(c3ccc(C)nn3)CC2)cc1 [pirodavir]
therapeutic efficacy in EV-D68 mouse models [9]: none of these antivirals showed therapeutic efficacy

Compound: Cc1cc(CCCOc2c(C)cc(-c3noc(C(F)(F)F)n3)cc2C)on1 [pleconaril]
therapeutic efficacy in EV-D68 mouse models [9]: none of these antivirals showed therapeutic efficacy

Compound: NC(=O)c1ncn([C@@H]2O[C@H](CO)[C@@H](O)[C@H]2O)n1 [ribavirin]
therapeutic efficacy in EV-D68 mouse models [9]: none of these antivirals showed therapeutic efficacy

Compound: CCOC(=O)/C=C/[C@H](C[C@@H]1CCNC1=O)NC(=O)[C@@H](CC(=O)[C@@H](NC(=O)c1cc(C)on1)C(C)C)Cc1ccc(F)cc1 [rupintrivir]
therapeutic efficacy in EV-D68 mouse models [9]: none of these antivirals showed therapeutic efficacy

Compound: (1S,3aR,6aS)-N-((S)-1-(cyclopropylamino)-1,2-dioxohexan-3-yl)-2-((S)-3,3-dimethyl-2-(2-phenylacetamido)butanoyl)octahydrocyclopenta[c]pyrrole-1-carboxamide [Jun8861]
pIC50 ([2]; read-out: Enzymatic inhibitory activity IC50, EV-D68 2A^pro): 7.10 | pEC50 ([1]; CPE assay, EV-D68 US/MO/14-18947, R.D. cells): 6.80 | CC50 [10]: 36200 nM | Mode of inhibition of EV-D68 2A^pro [4]: reversible binding
